In patent US20260240203A1, “COMPOSITIONS CONTAINING GAMMA-AMINOBUTYRIC ACID AND METHODS FOR IMPROVING COGNITIVE FUNCTIONS, MOOD, AND ALERTNESS” (THE COCA-COLA COMPANY, priority 2023, published 2026):

Assays:
[1] = system: healthy adults; settings: vs placebo; compositive level; single beverage dose
[2] = system: healthy adults; settings: p-value vs placebo; compositive level; single beverage dose; b330

`Cn1c(=O)c2c(ncn2C)n(C)c1=O` [Caffeine, caffeine] was tested, and the accuracy of performance [1] was “numerically trends to improve the accuracy of performance, although no significance observed” and the “improve the speed of performance significantly comparing to placebo (p), as printed in the attention paragraph” value [2] was 0.002.
